This experiment concerns 186277-243-T-J2-PDC complex spheroid growth. Put plainly: Anticancer human tumor 186277-243-T-J2-PDC patient-derived colon adenocarcinoma cell line growth inhibition [AhR]. The following applies: for viability, T/C: stronger effect = lower value. The method in brief: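 Complex tumor spheroids co-cultured with HUVEC and human MSC stroma; AhR antagonists tested in combination with standard-of-care and investigational agents. Top concentration at or near clinical Cmax (else 10 microM), half-log dilutions; growth expressed as percent test/control.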

Where [1] appears, read: curve of first compound, second compound 0.1 µM.
[2] abbreviates: curve of first compound, second compound 0.316 µM.
The mark [3] stands for this setting: curve of first compound, second compound 1 µM.
[4] abbreviates: curve of first compound, second compound 3.16 µM.
[5] abbreviates: curve of first compound, second compound 10 µM.
Setting [6] is: second compound 0.1 µM, first compound 0.0316 µM.
[7] abbreviates: second compound 0.1 µM, first compound 0.1 µM.
The mark [8] stands for this setting: second compound 0.1 µM, first compound 0.316 µM.
Setting [9] is: second compound 0.1 µM, first compound 1 µM.
Where [10] appears, read: second compound 0.1 µM, first compound 3.16 µM.
The mark [11] stands for this setting: second compound 0.1 µM, first compound 10 µM.
Setting [12] is: second compound 0.316 µM, first compound 0.0316 µM.
Where [13] appears, read: second compound 0.316 µM, first compound 0.1 µM.
Where [14] appears, read: second compound 0.316 µM, first compound 0.316 µM.
Where [15] appears, read: second compound 0.316 µM, first compound 1 µM.
Where [16] appears, read: second compound 0.316 µM, first compound 3.16 µM.
Where [17] appears, read: second compound 0.316 µM, first compound 10 µM.
Where [18] appears, read: second compound 1 µM, first compound 0.0316 µM.
The mark [19] stands for this setting: second compound 1 µM, first compound 0.1 µM.
Setting [20] is: second compound 1 µM, first compound 0.316 µM.
[21] abbreviates: second compound 1 µM, first compound 1 µM.
The mark [22] stands for this setting: second compound 1 µM, first compound 3.16 µM.
The mark [23] stands for this setting: second compound 1 µM, first compound 10 µM.
[24] abbreviates: second compound 3.16 µM, first compound 0.0316 µM.
The mark [25] stands for this setting: second compound 3.16 µM, first compound 0.1 µM.
Setting [26] is: second compound 3.16 µM, first compound 0.316 µM.
The mark [27] stands for this setting: second compound 3.16 µM, first compound 1 µM.
The mark [28] stands for this setting: second compound 3.16 µM, first compound 3.16 µM.
Where [29] appears, read: second compound 3.16 µM, first compound 10 µM.
Where [30] appears, read: second compound 10 µM, first compound 0.0316 µM.
Where [31] appears, read: second compound 10 µM, first compound 0.1 µM.
Setting [32] is: second compound 10 µM, first compound 0.316 µM.
Where [33] appears, read: second compound 10 µM, first compound 1 µM.
Where [34] appears, read: second compound 10 µM, first compound 3.16 µM.
Where [35] appears, read: second compound 10 µM, first compound 10 µM.

Several values for one entry are separate records, joined by “and”; a condition that tells them apart may be missing. Equal entries are not always repeated.
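Further: spheroids exposed to compounds for seven days before the viability read.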
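Wherever viability, T/C is given: luminescent signal used as a stand-in for viable cell amount; 100% = DMSO vehicle control wells.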

In general, IC50 refers to the concentration that inhibits the measured activity by half. A word on the viability, T/C: it is the result in the treated group divided by that in the control group, in per cent. For `CC(C)c1c(-c2ccccc2)nc2c(C#N)c[nH]n2c1=O` + Cc1cncc(-c2nc(NCCc3c[nH]c4ccccc34)c3ncn(C(C)C)c3n2)c1, the IC50 reads like this: under setting [1], more than 10000 nM; under setting [2], more than 10000 nM; under setting [3], more than 10000 nM; under setting [4], more than 10000 nM; under setting [5], less than 31.6 nM. Further, the viability, T/C reads like this: under setting [6], 127%; under setting [7], 105%; under setting [8], 101%; under setting [9], 98.3%; under setting [10], 95.8%; under setting [11], 96.5%. For the same molecule, the viability, T/C runs as follows: under setting [12], 102%; under setting [13], 99.6%; under setting [14], 101%; under setting [15], 98.8%; under setting [16], 95%; under setting [17], 108%. Further, the viability, T/C runs as follows: under setting [18], 107%; under setting [19], 101%; under setting [20], 98.5%; under setting [21], 103%; under setting [22], 94.4%; under setting [23], 102%. The viability, T/C under setting [24] is 109%; the viability, T/C under setting [25] was 111%; the viability, T/C under setting [26] was 96.3%; the viability, T/C under setting [27] was 96.1%; the viability, T/C under setting [28] is 108%; the viability, T/C under setting [29] is 102%. Moreover, the viability, T/C is 26% under setting [30]; 22.7% under setting [31]; 20.5% under setting [32]; 25.6% under setting [33]; 23.9% under setting [34]; 34.4% under setting [35].

Consider `Nc1ncn(C2CC(O)C(CO)O2)c(=O)n1` (stereo unspecified), for which the viability, T/C (compound 0.00316 µM) was 102% and 96.5% and 89.6%; the viability, T/C (compound 0.01 µM) was 104% and 110% and 93.2%; the viability, T/C (compound 0.0316 µM) was 98.8% and 108% and 88.1%; the viability, T/C (compound 0.1 µM) was 114% and 107% and 76.6%; the viability, T/C (compound 0.316 µM) was 137% and 110% and 65.2%; the viability, T/C (compound 1 µM) was 133% and 121% and 49.5%. For the same molecule, under “curve of compound”, the IC50 is > 1000 nM and 982 nM.

With `Cc1ccccc1N=Nc1ccc(NC(=O)c2ccnn2C)c(C)c1`, the viability, T/C reads like this: (compound 1 µM) 99.2% [middle of 20 runs]; (compound 3.16 µM) 96% [middle of 20 runs]; (compound 10 µM) 88.8% [middle of 20 runs]. Besides, where the note is “compound alone, run of 07/26/2022”, the IC50 was more than 10000 nM.

In the case of `COc1cc(C2c3cc4c(cc3C(OC3OC5COC(C)OC5C(O)C3O)C3COC(=O)C23)OCO4)cc(OC)c1O` (stereo unspecified), the viability, T/C (compound 0.0316 µM) was 97.2% and 86.2% and 92.7%; the viability, T/C (compound 0.1 µM) was 126% and 88.1% and 97.8%; the viability, T/C (compound 0.316 µM) was 118% and 44.4% and 142%; the viability, T/C (compound 1 µM) is 58.8% and 22.6% and 97.1%; the viability, T/C (compound 3.16 µM) was 51.1% and 17.5% and 85.7%; the viability, T/C (compound 10 µM) is 25.6% and 10% and 46.4%.

As for `COc1cccc2c1C(=O)c1c(O)c3c(c(O)c1C2=O)CC(O)(C(=O)CO)CC3OC1CC(N)C(O)C(C)O1` (stereo unspecified), the viability, T/C was 111% and 154% and 44.9% (compound 0.0316 µM); 74.9% and 144% and 30.5% (compound 0.1 µM); 0.9% and 5.52% and 0.26% (compound 1 µM); 0.36% and 0.59% and 0.22% (compound 3.16 µM); 0.28% and 1.4% and 0.25% (compound 10 µM).

Take `Nc1ccn(C2OC(CO)C(O)C2(F)F)c(=O)n1` (stereo unspecified): the viability, T/C runs as follows: (compound 0.0316 µM) 9.07% and 4.89% and 17.2%; (compound 0.1 µM) 8.27% and 4.63% and 16.2%; (compound 0.316 µM) 8.12% and 4.79% and 17.4%; (compound 1 µM) 8.52% and 4.4% and 18.1%; (compound 3.16 µM) 9.77% and 4.35% and 19.5%; (compound 10 µM) 9.11% and 3.84% and 21.3%. For the same molecule, the half-maximal inhibitory concentration (IC50) (curve of compound) was less than 31.6 nM.

As for `O=C(c1cc(Cc2n[nH]c(=O)c3ccccc23)ccc1F)N1CCN(C(=O)C2CC2)CC1` + Cc1ccccc1N=Nc1ccc(NC(=O)c2ccnn2C)c(C)c1, the IC50 under setting [1] is more than 10000 nM; the IC50 under setting [2] was more than 10000 nM; the IC50 under setting [3] was more than 10000 nM; the IC50 under setting [4] is more than 10000 nM; the IC50 under setting [5] was more than 10000 nM. For the same molecule, the viability, T/C runs as follows: under setting [6], 102%; under setting [7], 95.4%; under setting [8], 95.5%; under setting [9], 101%; under setting [10], 99.2%; under setting [11], 123%. For the same molecule, the viability, T/C under setting [12] is 94%; the viability, T/C under setting [13] is 111%; the viability, T/C under setting [14] was 97.5%; the viability, T/C under setting [15] is 101%; the viability, T/C under setting [16] is 100%; the viability, T/C under setting [17] was 127%. Further, the viability, T/C is, setting by setting: under setting [18], 105%; under setting [19], 87.3%; under setting [20], 110%; under setting [21], 95.1%; under setting [22], 113%; under setting [23], 127%. Also, the viability, T/C under setting [24] is 109%; the viability, T/C under setting [25] was 96.5%; the viability, T/C under setting [26] was 104%; the viability, T/C under setting [27] was 101%; the viability, T/C under setting [28] was 106%; the viability, T/C under setting [29] is 111%. Besides, the viability, T/C runs as follows: under setting [30], 85.6%; under setting [31], 86.1%; under setting [32], 101%; under setting [33], 93.3%; under setting [34], 93.6%; under setting [35], 91.6%.

In the case of `COc1cc(C2c3cc4c(cc3C(OC3OC5COC(C)OC5C(O)C3O)C3COC(=O)C23)OCO4)cc(OC)c1O` (stereo unspecified) + CC(CO)NC(=O)c1cc(-c2ccc(Cl)cc2)nn(-c2cnn(C)c2)c1=O, the IC50 is, setting by setting: under setting [1], 279 nM; under setting [2], 281 nM; under setting [3], 260 nM; under setting [4], 197 nM; under setting [5], 81.6 nM. The viability, T/C reads like this: under setting [6], 102%; under setting [7], 83.9%; under setting [8], 45.4%; under setting [9], 20.3%; under setting [10], 15.5%; under setting [11], 8.93%. The viability, T/C reads like this: under setting [12], 92.8%; under setting [13], 90.6%; under setting [14], 45%; under setting [15], 17.8%; under setting [16], 17.6%; under setting [17], 8.41%. In addition, the viability, T/C was 89.2% under setting [18]; 80.2% under setting [19]; 42.6% under setting [20]; 20.7% under setting [21]; 16.4% under setting [22]; 8.47% under setting [23]. Also, the viability, T/C was 84.5% under setting [24]; 71.6% under setting [25]; 33.7% under setting [26]; 20.2% under setting [27]; 14.5% under setting [28]; 7.04% under setting [29]. Moreover, the viability, T/C is 68.3% under setting [30]; 47.4% under setting [31]; 25.2% under setting [32]; 19.2% under setting [33]; 10.4% under setting [34]; 6.47% under setting [35].

For the molecule `Cn1ncnc1C1c2n[nH]c(=O)c3cc(F)cc(c23)NC1c1ccc(F)cc1` (stereo unspecified), the viability, T/C (compound 0.000316 µM) was 102% and 97.2% and 113%; the viability, T/C (compound 0.001 µM) was 97.8% and 111% and 108%; the viability, T/C (compound 0.00316 µM) was 91.4% and 107% and 93.2%; the viability, T/C (compound 0.01 µM) is 103% and 107% and 102%; the viability, T/C (compound 0.0316 µM) is 99.6% and 119% and 78.8%; the viability, T/C (compound 0.1 µM) is 110% and 114% and 69%. Moreover, the IC50 (curve of compound) was more than 100 nM.

The record behind these values is PubChem BioAssay AID1918991 (Molecular Pharmacology Branch, DTP, NCI, 2023).
